Columns and labels:
[1] = test system: BJ-TERT/LT/ST/RAS^V12 cells; experiment: Cell death, viable cells counted using a hemacytometer; type: cell-based, human; settings: 13 μM erastin A1, 23 μM antimycin, 126 μM 2-methoxyestradiol or the combinations
[2] = Stability in human liver microsomes; type: in vitro ADME; settings: after 1 hr
Protocol: The stability of erastin in mouse and human liver microsomes and in mouse and human plasma was assessed. In both human and mouse liver microsomes, after 1 hr, ˜30% of erastin was converted to its primary metabolite (the O-de-ethylated product). In both human and mouse plasma, only ˜10% of erastin was lost after five hours. Thus, erastin has sufficient metabolic and plasma stability to be tested in vivo in mice.

[3] = test system: BJ-TERT/LT/ST/RAS^V12 cells; experiment: Oxidative species detection (H2DCF-DA, flow cytometry); type: cell-based, human; settings: 4.6 μM erastin
Protocol: BJ-TERT/LT/ST/RAS^V12 cells (shown in histogram plots and in line graph, dark line) and BJ-TERT cells (shown in line graph only, light line) were treated with 4.6-μM erastin and the level of intracellular oxidative species determined using 2′7′-dichlorodihydrofluorescein diacetate (H2DCF-DA, Molecular Probes) and flow cytometry. Cells were seeded at 3×10^5 cells per dish in 60-mm dishes and allowed to grow overnight. Cells were incubated with 10 μM of H2DCF-DA for 10 minutes, harvested by trypsinization, washed twice with cold PBS, re-suspended in 100 μl of PBS and incubated with 5 μl of 50-μg/ml propidium iodide for 10 minutes. 400 μl of PBS was added and the solution analyzed by flow cytometry (FACSCalibur-Becton-Dickinson).
2′7′-dichlorodihydrofluorescein diacetate (H2DCF-DA, Molecular Probes) was used to measure oxidative species by flow cytometry. Non-fluorescent H2DCF-DA is cleaved by endogenous esterases and then is oxidized to generate fluorescent dichlorofluorescein (DCF). BJ-TERT/LT/ST/RAS^V12 and BJ-TERT cells were seeded at 3×10^5 cells per dish in 60-mm dishes and allowed to grow overnight. Cells were treated with 4.6 μM erastin for 2, 4, 6, 8, 10 and 12 h. […] 400 μl of PBS was added and the solution analyzed by flow cytometry (FACSCalibur-Becton-Dickinson). FL1-H indicates DCF fluorescence units detected.

Caspase-3 = Caspase-3 cleavage (western blot); type: cell-based
[4] = test system: BJ-TERT/LT/ST/RAS^V12 cells; experiment: ATP detection; type: cell-based, human; settings: erastin 20 μg/mL for 12 hours
Protocol: Cells were seeded in polystyrene 100×20 mm dishes (Falcon/#353003) in 10 mL of media. Three million cells were seeded in each dish for staurosporine (STS) and erastin treatment. Two million cells were seeded in each dish for no treatment and hydrogen peroxide treatment. Cells were treated with staurosporine (1 μM) for 12 hours, with H2O2 (16 mM) for 1.5 hours and erastin (20 μg/mL) for 12 hours. After the incubation, we counted cells using a CiCell analyzer (Beckman). 100,000 cells from each treatment were collected and washed twice in Hank's Salt Solution (10 ml). Next, we suspended cells in 200 μl of Nucleotide Releasing Buffer (BioVision/K254-200 ApoSensor Cell Viability Assay Kit) and incubated at room temperature for 10 minutes. To 10 μl of the above sample, we added 1 μl of ATP Minitoring Enzyme (BioVision/K254-200 ApoSensor Cell Viability Assay Kit) and read the ATP levels of the samples using a luminometer.
ATP levels were measured in BJERL cells treated with nothing (NT), treated with 1 μM of Staurosporine (STS) for 12 hours, with 16 mM of hydrogen peroxide for 1.5 hours and 20 μg/mL of erastin for 12 hours. ATP levels were normalized by number of viable cells.

PARP1 = PARP1 cleavage (western blot); type: cell-based, human; settings: BJ-TERT/LT/ST/RAS^V12 cells; staurosporine 1 μM 6 h, camptothecin 1 μM 18 h, erastin 20 μg/mL
Protocol: BJ-TERT/LT/ST/RAS^V12 tumor cells were seeded in six-well dishes, incubated overnight at 37° C. with 5% CO2 and were treated with nothing (NT), staurosporine (ST, 1 μM) for 6 h, camptothecin (C, 1 μM) for 18 h, or erastin (20 μg/mL) for the indicated time, lysed and analyzed by western blot with an anti-PARP1 antibody. A relatively high concentration of erastin was used to ensure loss of PARP cleavage was not due to a concentration-dependent effect.
BJ-TERT/LT/ST/RAS^V12 cells were seeded in polystyrene 100×20 mm dishes (Falcon/#353003) in 10 ml of media. Three million cells were seeded in each dish. After overnight incubation at 37° C. with 5% CO2, BJ-TERT/LT/ST/RAS^V12 cells were treated with nothing, staurosporine (1 μM) for 6 h, camptothecin (1 μM) for 18 h or erastin (20 μg/mL) for 6, 10, 12, 12.5, 13, 14, 18 or 26 h, and prepared for western blotting.

CCOc1ccccc1-n1c(C(C)N2CCN(C(=O)COc3ccc(Cl)cc3)CC2)nc2ccccc2c1=O (stereo not drawn) [erastin, 2-(1-{4-[2-(4-Chloro-phenoxy)-acetyl]-piperazin-1-yl}-ethyl)-3-(2-ethoxy-phenyl)-3H-quinazolin-4-one]
Cell death (%) [1]: 100% | converted to primary metabolite (O-de-ethylated product) [2]: ~30% | Formation of oxidative species [3]: oxidizing species were detected | Caspase-3 cleavage (Caspase-3): not cleaved | ATP levels per viable cell [4]: decreased modestly | PARP1 cleavage (PARP1): unaffected

— US20080299076A1, “Compunds and compositions that cause non-apoptotic cell death and uses thereof” (priority 2006, published 2008)
